Laboratory results taken from article PMC11348189, “Disorder-to-order active site capping regulates the rate-limiting step of the inositol pathway” (Proceedings of the National Academy of Sciences of the …, 2024).

How the values were obtained:
[1] = biological target: T1, endogenous fungal MIPS (myo-inositol-1-phosphate synthase) (Thermochaetoides thermophila, UniProt G0SDP4); test: cryo-EM structure ([…] Å); assay type: binding; details: endogenously bound in all four active sites; native SEC fraction, pH 7.4; monovalent cation (probably K+) near NAD
T1 construct: gene CTHT_0052500; native full-length enzyme in SEC fraction of T. thermophila cell extract, no tag; 240 kDa homotetramer; residues 40-552 resolved
T1 sequence (G0SDP4 1-552): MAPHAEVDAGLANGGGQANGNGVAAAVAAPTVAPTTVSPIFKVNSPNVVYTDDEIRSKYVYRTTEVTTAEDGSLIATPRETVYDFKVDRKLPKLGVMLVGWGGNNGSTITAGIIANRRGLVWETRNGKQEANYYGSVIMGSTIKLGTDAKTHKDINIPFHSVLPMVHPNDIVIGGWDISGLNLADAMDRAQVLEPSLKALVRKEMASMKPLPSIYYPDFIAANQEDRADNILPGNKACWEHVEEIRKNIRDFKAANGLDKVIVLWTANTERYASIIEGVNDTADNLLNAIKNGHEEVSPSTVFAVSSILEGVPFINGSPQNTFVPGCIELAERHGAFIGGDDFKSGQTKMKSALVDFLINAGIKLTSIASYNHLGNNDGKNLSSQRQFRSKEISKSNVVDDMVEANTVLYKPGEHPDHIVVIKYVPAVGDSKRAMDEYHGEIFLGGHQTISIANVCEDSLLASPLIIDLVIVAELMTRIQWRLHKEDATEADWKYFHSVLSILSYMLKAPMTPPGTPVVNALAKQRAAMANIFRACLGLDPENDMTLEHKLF

[2] = biological target: T1, endogenous fungal MIPS (myo-inositol-1-phosphate synthase); test: phosphate release after periodate oxidation, molybdate, […] nm; assay type: biochemical; details: SEC fraction of cell extract; 5 mM G6P, 0.8 mM NAD+, 14 mM ammonium acetate, 2 mM DTT, 100 mM Tris-acetate pH 8, 37 °C

## NC(=O)c1ccc[n+]([C@@H]2O[C@H](COP(=O)(O)OP(=O)(O)OC[C@H]3O[C@@H](n4cnc5c(N)ncnc54)[C@H](O)[C@@H]3O)[C@@H](O)[C@H]2O)c1 [NAD^+]
[1]
  cryo-EM structure (2.48 Å): allowing for the unambiguous placement of the cofactor NAD (Fig. 2A)

## O=P(O)(O)OC[C@H]1OC(O)[C@H](O)[C@@H](O)[C@@H]1O (some centres unmarked) [glucose-6-phosphate]
[2]
  phosphate release after periodate oxidation, molybdate, 820 nm: probe the identified fractions for their capacity to convert G6P to IMP
